The values below come from a melting point compilation (Tetko et al.; mined from patent text by program, amines drawn as free bases though some values may be those of a salt).

The melting point is the temperature of the solid-liquid transition.

`COC1CN(C(C)CC(C(=O)N(C)C)(c2ccccc2)c2ccccc2)CCC1NC(=O)c1cccc(C(F)(F)F)c1` (stereo unspecified) gave a melting point of 198 °C.

`N#Cc1ccc(-c2ccc(-c3ccc(C#N)cc3)cc2)cc1`: the melting point lay in the range of 299 to 300 °C.

`Cc1nc(-c2ccc(F)cc2)c(-c2ccc(S(C)(=O)=O)cc2)s1`: the melting point was 229 to 233 °C.

Take `C[C@H]1[C@H](c2ccccc2)OC(c2cccc(Br)c2)N1C` (stereo partly specified): the melting point lay within 73 to 75 °C.

Take `CSC(=NC(C)=O)N(C)N=Cc1ccccc1`: the melting point lay within 102 to 104 °C.

As for `CCCCC(=O)N1CCN(C(=O)Nc2ccccc2CCc2cc(C(C)(C)C)c(O)c(C(C)(C)C)c2)CC1`, the melting point lay in the range of 126 to 128 °C.

`COc1ccc(SCCCCCCCC(=O)O)cc1` registered a melting point of 66 to 68 °C.

Compound `COc1cc2c(cc1O)CCN(CC(=O)c1ccc(OC)c(OC)c1)C2` showed a melting point of 149 to 150 °C.

`O=C(O)[C@@H]1Cc2ncn(Cc3ccccc3)c2CN1C(=O)c1ccccc1` displayed a melting point of 233 to 235 °C.

Turning to `NS(=O)(=O)c1ccc(-c2noc(-c3cnn4c(C5CC5)cc(-c5ccc(C(F)(F)F)cc5)nc34)n2)s1`, the melting point worked out at 290 °C.

The compound `Cc1cc(-c2cc(C(F)(F)F)n3cnc(C#N)c3n2)ccc1C(F)(F)F` showed a melting point of 217 °C.

`CCCCNc1ccccc1S(=O)(=O)NC(=O)n1nc(SC)n(C)c1=O` returned a melting point of 120 °C.

`Cc1ccc(-c2ccc3c(c2)C=C(C(=O)O)CC(c2ccccc2)O3)cc1` (stereo unspecified) returned a melting point of 296 to 297 °C.

Compound `O=C(NCc1ccccn1)c1nc(-c2ccccc2)c(-c2ccc(=O)n(Cc3ccccc3)n2)s1` had a melting point of 172 to 174 °C.

The compound `CC(C)CCCC(C)C1CCC2C3CC=C4CC(NCCCNC(=O)CCCCCNc5ccc([N+](=O)[O-])c6nonc56)CCC4(C)C3CCC12C` (stereo unspecified) showed a melting point of 78 to 80 °C.

For `N#Cc1cnc2ccsc2c1Sc1ccc(Cl)cc1Cl`, the melting point was 126 to 128 °C.

With `O=C(O)c1cn(-c2ccc(F)cc2)c2c(F)c(N3Cc4ccc(Br)cc4C3)c(F)cc2c1=O`, the melting point is greater than 300 °C.

In the case of `COc1ccc(CCNC(=O)C(=O)O)cc1OC1CCCC1`, the melting point is 123 to 124 °C.

For the compound `Clc1nc(Cl)c2c(n1)CCCS2`, the melting point was 110 °C.

Consider `OC(Cc1ccc(Cl)cc1Cl)n1ccnc1` (stereo unspecified), for which the melting point lay within 139 to 141 °C.

For `Cc1cc(SCc2sc(-c3ccc(F)c(F)c3)nc2C)ccc1OCC(=O)O`, the melting point came to 119 °C.

In turn, `CC(=O)OCCOc1ccc(C2C(=O)Oc3c2cc(C(C)(C)C)cc3C(C)(C)C)cc1` (stereo unspecified) registered a melting point of 75 to 78 °C.

Compound `CCOC(=O)C(C(=O)OCC)c1cccc(C(=O)c2ccccc2)c1[N+](=O)[O-]` came in with a melting point of 130 to 131 °C.

The compound `CNc1ccc(OC2CCN(c3ccncc3)CC2)cc1` returned a melting point of 161 to 164 °C.

`CC(=O)NC1(c2ccccc2)C2=NCC(C)(C)CN2c2ccccc21` (stereo unspecified) came in with a melting point greater than 300 °C.

In turn, `O=c1c2c(Cc3ccc(OC(F)(F)F)cc3)n[nH]c2c2cccnc2n1-c1cccc(C(F)(F)F)c1` gave a melting point of 134 to 137 °C.

Regarding `COc1ccc(CNC(=O)c2c(NC(=O)c3ccc(C(=O)O)cc3)sc3c2CCCC3)cc1OC`, the melting point was greater than 270 °C.

For `O=C(O)c1cnn(CC(F)(F)F)c1`, the melting point lay within 160 to 162 °C.

As to `Cn1cc([N+](=O)[O-])nc1C=O`, the melting point amounted to 129 °C.

Compound `Cc1cccc(-c2ccc3c(c2)c2c(n3Cc3ccccc3)COC(=O)C2=O)c1` came in with a melting point of 225 to 226 °C.

Compound `CC(C)(C)OC(=O)Nc1ccccc1O` gave a melting point of 145 °C.

As to `c1ccc(-c2nc3cnccc3o2)cc1`, the melting point was in the range of 118 to 121 °C.

With `O=c1[nH]c2ccccc2nc1-c1ccc(Cl)cc1Cl`, the melting point is 300 °C.

Compound `COc1cc(C(C)=O)cc(OC)c1OCCOc1ccc2ccccc2c1` registered a melting point of 76 to 77 °C.

As for `COc1cc2nc(C(C)(C)C)sc2cc1NC(=S)N1CCN(CCO)CC1`, the melting point was in the range of 161 to 162 °C.

The compound `CC(C)(O)C#Cc1nccs1` registered a melting point of 69 to 70 °C.

Regarding `CC1Cc2nc(N)nc(Cl)c2C1` (stereo unspecified), the melting point is 182 to 183 °C.

Take `O=[N+]([O-])c1ccc(CNc2ccccn2)cc1`: the melting point was 131 to 132 °C.

`CC(=O)Nc1nc(C)c(CCN2CCC(=C(c3ccc(F)cc3)c3ccc(F)cc3)CC2)c(=O)n1C` came in with a melting point of 141 °C.

As for `C1CSC(SSCCSSC2=NCCS2)=N1`, the melting point amounted to 102 °C.

The compound `Cc1ccc(Nc2c([N+](=O)[O-])cc(C(=O)O)cc2S(N)(=O)=O)c(C)c1` displayed a melting point of 224 to 226 °C.

Compound `CN(C)CCCNC(=O)c1ccc(/C=C/c2ccc3c(=O)[nH]ncc3c2)cc1` returned a melting point of 287 °C.

Regarding `Cn1cc2c(c(C#N)c1=O)Nc1ccccc1S2`, the melting point lay in the range of 292 to 295 °C.

`CC(C)(C)OC(=O)NCC(=O)Nc1cccc(NC(=N)N2CCCC2)c1` gave a melting point of 182 to 183 °C.

In the case of `O=C(O)c1nc(-c2ccc(Cl)cc2Cl)n(-c2ccc(Cl)cc2)c1CO`, the melting point is 138 °C.

Compound `ClCCCn1cc2cc(OCc3ccccc3)ccc2n1` yielded a melting point of 97 to 98 °C.

With `COc1ccc2cc(CCCOCCCCCCNCC(O)c3ccc(O)c(NS(C)(=O)=O)c3)ccc2c1` (stereo unspecified), the melting point lay within 87 to 89 °C.

For the compound `COc1ccc(N2CCN(CCn3c(=O)[nH]c4cscc4c3=O)CC2)cc1`, the melting point was 238 to 239 °C.

Turning to `Cc1nc2c(C(F)(F)F)cccc2c(O)c1C(=O)Nc1nccs1`, the melting point amounted to 267 °C.

As for `COC(=O)c1cccc2[nH]c(=O)c(C(=O)c3ccccc3)c(O)c12`, the melting point was 263 to 265 °C.

In turn, `CN1C(=O)C(N)C(=O)N(C23CC4CC(CC(C4)C2)C3)c2ccccc21` (stereo unspecified) came in with a melting point of 194 °C.

For `COc1ccc(-c2cn(Cc3ccccc3)c(=O)c3ccccc23)cc1OC`, the melting point lay within 174 to 176 °C.

For `CC(=O)OC1CSC(Oc2ccc(-c3ccncc3)cc2F)C(OC(C)=O)C1OC(C)=O` (stereo unspecified), the melting point was 179 °C.

`N#CCN[C@H]1CCc2c(F)cc(F)cc2C1` registered a melting point of 73 to 76 °C.

`Cc1sc(-c2ccccc2)nc1COc1ccc(C#N)cn1`: the melting point was 124 to 125 °C.

For `O=C1NC(=O)C(Cc2ccc(Oc3ccc(Oc4ccc(CC5OC(=O)NC5=O)cc4)cc3)cc2)O1` (stereo unspecified), the melting point lay in the range of 93 to 96 °C.

The compound `COc1nc(C)c(C)cc1[N+](=O)[O-]` registered a melting point of 71 to 73 °C.

As for `O=C(N[C@@H](Cc1ccccc1)C(=O)NCCCNC(=O)[C@H](Cc1ccccc1)NC(=O)OCc1ccccc1)OCc1ccccc1`, the melting point is 226 to 227 °C.

In turn, `Cc1cc2c(c(C(C)(C)C)c1)OP(NC1CC(C)(C)N(C)C(C)(C)C1)Oc1c(cc(C)cc1C(C)(C)C)C2` displayed a melting point of 207 to 216 °C.

`CCOC(=O)c1c(C)nc2c(cnn2CCC(C)CC)c1N` (stereo unspecified) showed a melting point of 217 to 222 °C.

`Nc1nc(O)c2c(CCCc3ccc(C(=O)N[C@@H](CCC(=O)O)C(=O)O)cc3)cnc-2[nH]1` came in with a melting point of 190 to 193 °C.

Turning to `COc1ccc2ccccc2c1C1CCN(CCCCNC(=O)c2ccc(-c3ccc(Cl)cc3)cc2)CC1`, the melting point is 149 °C.

For the compound `CCOC(=O)CC(=O)c1c(F)c(F)c(N2CCC(NC(C)=O)C2)c(F)c1F` (stereo unspecified), the melting point lay within 90 to 92 °C.

On to `CCOC(=O)c1c(-c2ccccc2)c2ccc(Cl)cc2c(=O)n1C`, for which the melting point was 152 to 153 °C.

Consider `CC(C)c1cc(CCC(=O)OCC(C)(C)C2OCC3(CO2)COC(C(C)(C)COC(=O)CCc2cc(C(C)C)c(O)c(C(C)(C)C)c2)OC3)cc(C(C)(C)C)c1O` (stereo unspecified), for which the melting point lay in the range of 47 to 57 °C.

`Clc1ccc(CN2CCOCC2)c(N=C2CCCCN2)c1`: the melting point lay in the range of 121 to 122 °C.

Regarding `CON=C(C(=O)NC1C(=O)N2C(C(=O)O)=C(CSc3nnnn3C)SCC12)c1csc(N)n1` (stereo unspecified), the melting point amounted to 180 °C.

`CCCCCC1(C(=O)Oc2ccc(C(=O)O)cc2)CC2=C(C1)C(C)(C)CCC2(C)C` showed a melting point of 156 to 158 °C.

Consider `COc1cccc(-c2ccc3c(c2)C(C)(C)OC(=O)N3)c1`, for which the melting point lay in the range of 164 to 165 °C.

The compound `CC(C)c1noc(-c2ncn3c4cccc(Cl)c4c(=O)n(C)c23)n1` displayed a melting point of 209 °C.

`O=Cc1c(-c2ccc(Cl)cc2)sc2ccccc12` displayed a melting point of 99.7 to 101 °C.

With `Cc1cccc(Nc2nncc3ccccc23)c1`, the melting point fell in the range of 176 to 177 °C.

`Fc1ccccc1-c1ccc(Br)cc1F` came in with a melting point of 45 to 46 °C.

Regarding `COc1ccc(C(=O)Nc2ccccc2)cc1NS(=O)(=O)c1ccc(C(=O)O)cc1`, the melting point lay in the range of 212 to 214 °C.

`CC(C)[C@H](NC(=O)N(C)Cc1cccnc1)C(=O)N[C@@H](Cc1ccccc1)[C@H](O)[C@@H](O)[C@H](Cc1ccccc1)NC(=O)[C@@H](NC(=O)N(C)Cc1ccccn1)C(C)C` had a melting point of 92 to 94 °C.

Compound `CC(C)c1cc(C(=O)O)cc(C(C)C)c1O` returned a melting point of 147 °C.

The compound `Cc1nc2c(c(=O)[nH]1)-c1ccc(Cl)cc1C(c1ccccc1Cl)=NC2` returned a melting point of 277 to 279 °C.

`Oc1nc(-c2ccc(F)cc2)c(CCN2CCC(=Cc3cccc(F)c3)CC2)s1`: the melting point lay within 140 to 142 °C.

The compound `Cn1nc(C(F)(F)F)nc1NCCCCOc1cccc(CN2CCCCC2)c1` yielded a melting point of 70 °C.

The compound `CCC(=O)OCCN1CCc2cc(Nc3ncc(Cl)c(Nc4ccccc4S(=O)(=O)N(C)C)n3)c(OC)cc2CC1` had a melting point of 40 °C.

With `O=C(Oc1ccccc1)c1ccc(Oc2ccc([N+](=O)[O-])cc2)cc1O`, the melting point fell in the range of 118 to 120 °C.

Compound `COCC1OC(n2cnc3c(N)ncnc32)C(O)C1O` (stereo unspecified) showed a melting point of 112 to 114 °C.

In turn, `CN(c1cccc2cc(C3=NCC4(CCN(CC(C)(C)O)CC4)S3)[nH]c12)S(=O)(=O)c1cccs1` showed a melting point of 191 °C.

Consider `O=P(O)(O)Cc1ccc(CS(=O)(=O)c2ccccc2)cc1`, for which the melting point is greater than 280 °C.

The compound `NC(=O)c1ccc(F)c2c1CC(NCCCc1c[nH]c3c(Cl)cccc13)CO2` (stereo unspecified) registered a melting point of 222 to 224 °C.

With `COC(=O)c1cncn1C(c1ccccc1)c1ccccn1` (stereo unspecified), the melting point turned out to be 96.3 °C.
